According to ChEMBL document CHEMBL1177697, “Evolution of poly(ADP-ribose) polymerase-1 (PARP-1) inhibitors. From concept to clinic” (J Med Chem, 2010):
pIC50: −log10 of the molar value.

Columns and labels:
[1] = biological target: T1, Poly [ADP-ribose] polymerase 1 (Homo sapiens, UniProt P09874)
[2] = Half life in human patient at 200 to 800 mg, iv; type: ADME, organism-based; details: in vivo
[3] = in vivo; details: rat, brain/plasma, 10 mg/kg
Description: Ratio of drug level in brain to plasma in rat at 10 mg/kg/hr after 6 hrs

[4] = test system: Rattus norvegicus; experiment: Cardioprotective effect in rat ischemia/reperfusion-induced myocardial infarction model assessed as reduction in infarct size at 3 mg/kg/hr, iv administered prior to reperfusion; type: functional, Myocardium; set-up: scale not given: the % may be the effect or the level left
[5] = test system: Rattus norvegicus; experiment: Cardioprotective effect in rat ischemia/reperfusion-induced myocardial infarction model assessed as reduction in infarct size at 3 mg/kg/hr, iv administered prior to reperfusion measured after 4 hrs; type: functional, Myocardium; set-up: scale not given: the % may be the effect or the level left
[6] = test system: Rattus norvegicus; experiment: Cardioprotective effect in rat ischemia/reperfusion-induced myocardial infarction model assessed as reduction in infarct size at 3 mg/kg/hr, iv administered prior to reperfusion measured after 2 hrs; type: functional, Myocardium; set-up: scale not given: the % may be the effect or the level left
[7] = Ratio of drug level in brain to plasma in rat; type: ADME
[8] = test system: L1210; experiment: Cytotoxicity against mouse L1210 cells; type: functional
[9] = test system: Rattus norvegicus; experiment: Neuroprotective effect in rat transient MCAO model assessed as reduction in infarct volume at 40 mg/kg, iv administered prior to reperfusion; set-up: scale not given: the % may be the effect or the level left
[10] = test system: Rattus norvegicus; experiment: Cardioprotective effect in rat cardiac ischemia model assessed as reduction in infarct size at 80 mg/kg, iv administered prior to reperfusion; type: functional, Heart; set-up: scale not given: the % may be the effect or the level left
[11] = test system: LoVo; experiment: Potentiation of TMZ-induced antiproliferation against human LoVo cells at 0.4 uM; type: functional
[12] = biological target: T1, Poly [ADP-ribose] polymerase 1; experiment: Inhibition of PARP1 at 9.2 uM; set-up: scale not given: the % may be the effect or the level left
[13] = biological target: Poly [ADP-ribose] polymerase 2 (Homo sapiens, UniProt Q9UGN5); experiment: Inhibition of PARP2
[14] = Selectivity for […]
[15] = test system: Liver microsomes; experiment: Intrinsic clearance in human liver microsome; type: ADME
[16] = Biodistribution in human patient urine; type: ADME, organism-based; details: in vivo
[17] = test system: Homo sapiens; experiment: Toxicity in iv infused human patients assessed as maximum tolerated dose; type: organism-based; details: in vivo
[18] = Half life in iv dosed human patient; type: ADME, organism-based; details: in vivo
[19] = test system: Rattus norvegicus; experiment: Cardioprotective effect in rat ischemia/reperfusion-induced myocardial infarction model assessed as reduction in infarct size at 20 mg/kg, iv administered 10 mins prior to reperfusion; set-up: scale not given: the % may be the effect or the level left
[20] = test system: Rattus norvegicus; experiment: Neuroprotective effect in rat transient MCAO model assessed as reduction in infarct volume at 10 mg/kg/hr, iv administered prior to reperfusion; set-up: scale not given: the % may be the effect or the level left
[21] = Half life in human patient at 2.8 mg/kg, iv; type: ADME, organism-based; set-up: dose 2.8 mg/kg, route intravenous; details: in vivo

T1 sequence (P09874 whole entry): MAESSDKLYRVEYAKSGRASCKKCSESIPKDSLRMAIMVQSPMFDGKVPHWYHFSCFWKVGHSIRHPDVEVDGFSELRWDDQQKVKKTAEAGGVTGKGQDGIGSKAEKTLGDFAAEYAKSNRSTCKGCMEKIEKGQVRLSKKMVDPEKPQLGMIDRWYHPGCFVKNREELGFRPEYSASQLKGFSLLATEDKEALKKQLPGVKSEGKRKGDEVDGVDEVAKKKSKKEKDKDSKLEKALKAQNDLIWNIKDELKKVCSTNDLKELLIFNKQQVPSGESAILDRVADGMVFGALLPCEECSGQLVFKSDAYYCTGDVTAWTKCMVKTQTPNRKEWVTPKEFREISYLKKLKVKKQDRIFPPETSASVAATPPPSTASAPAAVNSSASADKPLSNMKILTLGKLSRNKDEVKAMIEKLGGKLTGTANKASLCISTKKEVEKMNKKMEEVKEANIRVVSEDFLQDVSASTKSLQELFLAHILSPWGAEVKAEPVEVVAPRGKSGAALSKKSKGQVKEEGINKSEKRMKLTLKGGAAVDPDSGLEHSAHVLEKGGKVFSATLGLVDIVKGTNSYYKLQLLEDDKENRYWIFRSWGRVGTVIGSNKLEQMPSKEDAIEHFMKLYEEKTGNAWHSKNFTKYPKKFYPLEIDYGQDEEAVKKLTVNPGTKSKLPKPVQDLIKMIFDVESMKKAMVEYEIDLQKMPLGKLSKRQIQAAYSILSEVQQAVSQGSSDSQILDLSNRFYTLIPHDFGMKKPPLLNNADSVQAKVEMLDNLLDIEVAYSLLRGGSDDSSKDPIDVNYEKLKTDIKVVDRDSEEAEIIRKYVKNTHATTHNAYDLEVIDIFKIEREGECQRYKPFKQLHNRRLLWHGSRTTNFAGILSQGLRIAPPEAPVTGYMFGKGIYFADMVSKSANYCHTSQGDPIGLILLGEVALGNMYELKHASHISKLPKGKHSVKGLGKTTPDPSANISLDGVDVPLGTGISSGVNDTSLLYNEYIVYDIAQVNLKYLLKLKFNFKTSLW
Poly [ADP-ribose] polymerase 2, sequence (Q9UGN5 whole entry): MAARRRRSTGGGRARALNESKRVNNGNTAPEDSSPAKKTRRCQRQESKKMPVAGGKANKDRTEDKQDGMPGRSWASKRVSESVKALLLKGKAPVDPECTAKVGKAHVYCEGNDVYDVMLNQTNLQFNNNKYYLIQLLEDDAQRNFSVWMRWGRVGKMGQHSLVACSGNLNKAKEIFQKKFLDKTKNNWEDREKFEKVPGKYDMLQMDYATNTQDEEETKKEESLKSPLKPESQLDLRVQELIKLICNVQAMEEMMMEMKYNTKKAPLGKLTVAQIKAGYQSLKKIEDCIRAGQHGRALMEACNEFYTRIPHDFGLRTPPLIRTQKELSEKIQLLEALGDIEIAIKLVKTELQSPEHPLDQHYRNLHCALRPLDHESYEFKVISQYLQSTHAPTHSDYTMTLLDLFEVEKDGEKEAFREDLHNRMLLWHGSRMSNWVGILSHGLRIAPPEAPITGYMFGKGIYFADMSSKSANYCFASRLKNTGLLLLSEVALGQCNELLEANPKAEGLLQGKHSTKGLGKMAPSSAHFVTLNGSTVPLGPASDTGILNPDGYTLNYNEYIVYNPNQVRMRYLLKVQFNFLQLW

Molecule `CCc1cc2cc(C(CCN3CCCCC3)Cc3ccc4c(c3)OCCO4)ccc2[nH]c1=O` (centres undefined) has a pIC50 [1] of 8.04.

`OC[C@H]1O[C@@H](n2cnc3c(O)ncnc32)[C@H](O)[C@@H]1O` [INOSINE] showed a half-life [2] of 7.5 h.

Work on `CN(C)Cc1ccc(-c2c[nH]c(=O)c3cccc(O)c23)cc1` yielded a Kp at 6 h [3] of 0.8, an Activity [4] of 57% and an Activity [5] of 47%. The Activity [6] was 50%.

With `Cc1nc2cccc(Cl)c2c(=O)[nH]1` the Kp [7] was 0.82.

`Cc1nc2c(O)cccc2c(=O)[nH]1` showed an Activity [8] of 90%.

`CN1CCN(c2ccc3nc(O)c4ccccc4c3n2)CC1` gave an Activity [9] of 44% and an Activity [10] of 25%.

`CN(C)Cc1ccc(-c2cc3cccc4c3n2CCNC4=O)cc1` gave a PF50 [11] of 3.8.

`NC(=O)c1cccc(C2CO2)c1` (centres undefined) showed an Activity [12] of 88% and a pIC50 [1] of 6.00.

`N#Cc1ccc(-c2cnc3cccc(C(N)=O)c3n2)cc1` gave a pIC50 [13] of 8.10 and a Selectivity ratio [14] of 10.

For `O=C1CCC(=O)N1c1cc(Cc2n[nH]c(=O)c3ccccc23)ccc1F`, the CL [15] was < 1 mL/min/g.

For `CNCc1ccc(-c2[nH]c3cc(F)cc4c3c2CCNC4=O)cc1` [RUCAPARIB], the Drug uptake [16] was 11%, the MTD [17] was 200 mg/m2 and the half-life [18] was 9.5 h.

In the case of `O=c1[nH]cnc2ccccc12` [QUINAZOLINONE], the pIC50 [1] was 4.80.

`O=C1NCCc2c(-c3ccc(CN4CCCC4)cc3)[nH]c3cccc1c23` gave a PF50 [11] of 7.8.

`CN(C)Cc1ccc(-c2nc3cccc4c3n2CCNC4=O)cc1` gave a PF50 [11] of 5.5.

Molecule `O=c1[nH]ccc2c(Br)cccc12` has a pIC50 [1] of 6.57.

Work on `Nc1ncnc2c1ncn2[C@@H]1O[C@H](C(=O)N2CCN(CC(=O)Nc3cccc4c3CNC4=O)CC2)[C@@H](O)[C@H]1O` yielded an Activity [19] of 35% and an Activity [20] of 57%.

In the case of `NC(=O)c1ccc(I)c([N+](=O)[O-])c1` [INIPARIB], the half-life [21] was 4 min.

`O=c1[nH]cc(-c2ccccc2)c2ccccc12` gave a pIC50 [1] of 6.05.

Work on `O=c1[nH]c(CCCN2CC=C(c3ccc(F)cc3)CC2)nc2c(Cl)cccc12` yielded a pIC50 [13] of 6.30.

Work on `NC(=O)c1cccc2[nH]cnc12` yielded a pIC50 [1] of 6.62.
